# Tested on: not given
# Test: not given
# Conditions: not given
row,SMILES,melting point
1,"O=C(c1ccc(Cl)cc1Cl)N1CCN(Cc2ccc(F)c(Cl)c2)CC1 [1d, (4-(3-Chloro-4-fluorobenzyl)piperazin-1-yl)(2,4-dichlorophenyl)methanone]",121 to 124 °C
2,"O=C(c1cc(F)ccc1C(F)(F)F)N1CCN(Cc2ccc(F)c(Cl)c2)CC1 [1e, (4-(3-Chloro-4-fluorobenzyl)piperazin-1-yl)(5-fluoro-2-(trifluoromethyl)phenyl)methanone]",133 to 135 °C
3,"O=C(c1cc2ccccc2s1)N1CCN(Cc2ccc(F)c(Cl)c2)CC1 [1f, Benzo[b]thiophen-2-yl(4-(3-chloro-4-fluorobenzyl)piperazin-1-yl)methanone]",111 to 113 °C
4,"O=C(CN1CCN(Cc2ccc(F)c(Cl)c2)CC1)N1CCN(c2ccc(O)cc2)CC1 [2c, 2-(4-(3-Chloro-4-fluorobenzyl)piperazin-1-yl)-1-(4-(4-hydroxyphenyl)piperazin-1-yl)ethanone]",165 to 168 °C
5,"CC(C(=O)N1CCN(c2ccc(O)cc2)CC1)N1CCN(Cc2ccc(F)c(Cl)c2)CC1 (stereo not shown) [2d, 2-(4-(3-Chloro-4-fluorobenzyl)piperazin-1-yl)-1-(4-(4-hydroxyphenyl)piperazin-1-yl)propan-1-one]",172 to 174 °C

# Results, then the compound that gave them:
row,melting point,SMILES
1,164 to 165 °C,"Nn1c(SCc2ccc(F)c(Cl)c2)nnc1-c1ccncc1 [3b, 3-(3-Chloro-4-fluorobenzylthio)-5-(pyridin-4-yl)-4H-1,2,4-triazol-4-amine]"
2,171 to 172 °C,"Nn1c(SCc2ccc(F)cc2Cl)nnc1-c1ccncc1 [3c, 3-((2-Chloro-4-fluorobenzyl)thio)-5-(pyridin-4-yl)-4H-1,2,4-triazol-4-amine]"
3,164 to 166 °C,"Nn1c(SCc2ccc(F)c(Cl)c2)nnc1-c1ccccc1 [3d, 3-(3-Chloro-4-fluorobenzylthio)-5-phenyl-4H-1,2,4-triazol-4-amine]"
4,34 to 35 °C,"c1ccc(SCSc2ccccc2)cc1 [4b, Phenylsulfanylmethylsulfanylbenzene]"

# Molecular target: tyrosinase from Agaricus bisporus (AbTYR) (Agaricus bisporus, UniProt C7FF04)
# Test: diphenolase inhibition of AbTYR (L-DOPA substrate, absorbance at 475 nm)
# Assay type: biochemical
# Conditions: diphenolase activity
# Procedure: Mushroom tyrosinase (EC 1.14.18.1) was supplied by Merck (Cat. No. T3824). In vitro assay was performed according to the method of Mirabile et al.. Each sample (0.05 mL) at different concentrations (0.10–200 μM) was mixed with 0.5 mL of L-DOPA solution (1.25 mM) and 0.9 mL of phosphate buffer solution (pH 6.8). After a 10 min incubation at 25 °C, 0.05 mL of an aqueous solution of the enzyme was added to the mixture. […] The inhibition rate was calculated with the following mathematical equation:Inhibition % = (A − B/A) × 100 where A = absorbance of negative control and B = absorbance of test sample. Finally, IC50 values were determined by interpolation of the dose–response curves.
# Sequence of tyrosinase from Agaricus bisporus (AbTYR) (C7FF04 2-392): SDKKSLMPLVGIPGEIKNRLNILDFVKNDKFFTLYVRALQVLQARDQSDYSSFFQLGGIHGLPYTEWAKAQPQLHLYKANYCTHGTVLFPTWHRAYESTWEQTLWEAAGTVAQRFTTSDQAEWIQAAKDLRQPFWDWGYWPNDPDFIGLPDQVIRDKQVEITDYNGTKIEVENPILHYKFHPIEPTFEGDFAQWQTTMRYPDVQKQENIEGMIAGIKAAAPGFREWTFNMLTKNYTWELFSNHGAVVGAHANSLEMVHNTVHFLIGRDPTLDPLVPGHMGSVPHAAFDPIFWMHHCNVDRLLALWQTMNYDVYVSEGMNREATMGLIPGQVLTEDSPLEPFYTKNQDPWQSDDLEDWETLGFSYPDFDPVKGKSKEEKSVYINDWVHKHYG
row,SMILES,"AbTYR inhibitory effect, result in words"
1,"Nn1c(SCc2ccc(F)cc2Cl)nnc1-c1ccncc1 [3c, 3-((2-Chloro-4-fluorobenzyl)thio)-5-(pyridin-4-yl)-4H-1,2,4-triazol-4-amine]",inhibitory effects dramatically disappeared
